Assay results: patent US20100137367A1, “NOVEL CRYSTALLINE BEPOTASTINE METAL SALT HYDRATE, METHOD FOR PREPARING SAME, AND PHARMACEUTICAL COMPOSITION COMPRISING SAME” (Hanmi Pharm. Co., Ltd., priority 2007, published 2010)
Read-outs that look alike come from different tables or passages of the source. Blank lines part the entries; values can stand above or below the compound they belong to.

Tests used:
[1] = Hygroscopicity of bepotastine salts (Table 1); type: physicochemical
Source text: Further, when the crystalline bepotastine metal salt hydrate of formula (I) of the present invention is stored under an extremely high-moisture condition, its moisture content don't increases substantially, thus, it is non-hygroscopic. In contrast, an alkaline metal salt of bepotastine, e.g., lithium salt, sodium salt, potassium salt, magnesium salt or barium salt of bepotastine; a transition metal salt of bepotastine, e.g., zinc salt, aluminum salt, bismuth salt, or iron salt of bepotastine; an organic amine salt of bepotastine, e.g., ammonium salt, ethyl amine salt, dimethyl amine salt, triethylamine salt or N-methyl glucamine salt of bepotastine; and an amino acidic salt of the bepotastine, e.g., arginine salt, lysine salt, or histidine salt of bepotastine, are mostly obtained as non-crystalline forms, and, even when they are obtained as crystalline forms, they are hygroscopic.

[2] = Effect of severe storage condition on the optical purity (chiral HPLC); type: physicochemical; settings: for Change of optical purity during the storage / Optical purity (%) After standing at 60° C. and 75% R.H. for 4 weeks in closed condition / Optical purity (%) After standing at 60° C. and 75% R.H. for 4 weeks in open condition: 60° C., 75% R.H., 4 weeks
Method: For the measurement of the optical purity of the bepotastine, chiral HPLC was conducted under following conditions and the optical purity was calculated using the Equation 1.
• Detector: Ultraviolet ray spectrophotometer (detection wavelength: 225 nm) • Column: YMC Chiral β-CDs (4.6×250 mm, 5 μm) • Mobile phase: methanol/ammonium acetate buffer solution=45/55(v/v, %) • Flow rate: 0.8 ml/min
Optical Purity (%)=Ps/(Ps+Pr)×100 Equation 1
wherein • Ps is the peak area of bepotastine, and • Pr is the peak area of R-enantiomer of bepotastine.
The optical purities of respective bepotastine salts were determined.

[3] = Solubility test (saturation solubility); settings: for Saturation solubility (mg/ml) pH 1.2 buffer solution: pH 1.2 buffer solution (simulates gastric juice); for Saturation solubility (mg/ml) pH 6.8 buffer solution: pH 6.8 buffer solution (simulates intestinal juice)
Moisture absorption test = type: physicochemical
[4] = 40° C. and 75% relative humidity
Source text: Accordingly, there have been attempts to convert bepotastine to an acid salt form having a high optical purity which is resistant to racemization.

Compound: O=C(O)CCCN1CCC(OC(c2ccc(Cl)cc2)c2ccccn2)CC1.O=C(O)c1ccccc1 (stereo not shown) [bepotastine benzoic acid salt]
Racemization under high moisture condition [4]: slow racemization

Compound: O=C(O)CCCN1CCC(O[C@@H](c2ccc(Cl)cc2)c2ccccn2)CC1.O=S(=O)(O)c1ccccc1 [Benzenesulfonic acid salt, Bepotastine Benzenesulfonic Acid Salt]
Change of optical purity during the storage [2]: decreases significantly
Optical purity (%) After standing at 60° C. and 75% R.H. for 4 weeks in closed condition [2]: 97.3%
Optical purity (%) After standing at 60° C. and 75% R.H. for 4 weeks in open condition [2]: 95.5%
Optical purity (%) Before the test [2]: 99.9%
Saturation solubility (mg/ml) pH 1.2 buffer solution [3]: 45.0 mg/ml
Saturation solubility (mg/ml) pH 6.8 buffer solution [3]: 28.1 mg/ml
Racemization under high moisture condition [4]: slow racemization
Water contents (%) Day 1 (Moisture absorption test; 25° C., 75% R.H.): 0.6%
Water contents (%) Day 3 (Moisture absorption test; 25° C., 75% R.H.): 0.6%
Water contents (%) Day 7 (Moisture absorption test; 25° C., 75% R.H.): 0.7%
Water contents (%) Day 15 (Moisture absorption test; 25° C., 75% R.H.): 0.6%
Water contents (%) initial (Moisture absorption test; 25° C., 75% R.H.): 0.4%
Water contents (%) Day 1 (Moisture absorption test; 40° C., 75% R.H.): 0.7%
Water contents (%) Day 3 (Moisture absorption test; 40° C., 75% R.H.): 0.8%
Water contents (%) Day 7 (Moisture absorption test; 40° C., 75% R.H.): 0.8%
Water contents (%) Day 15 (Moisture absorption test; 40° C., 75% R.H.): 0.9%
Water contents (%) initial (Moisture absorption test; 40° C., 75% R.H.): 0.4%
Water contents (%) Day 1 (Moisture absorption test; 40° C., 90% R.H.): 2.4%
Water contents (%) Day 3 (Moisture absorption test; 40° C., 90% R.H.): 2.5%
Water contents (%) Day 7 (Moisture absorption test; 40° C., 90% R.H.): 2.4%
Water contents (%) Day 15 (Moisture absorption test; 40° C., 90% R.H.): 2.5%
Water contents (%) initial (Moisture absorption test; 40° C., 90% R.H.): 0.4%

Compound: NCCCC[C@H](N)C(=O)O [L-Lysine]
Hygroscopicity [1]: Hygroscopic

Compound: L-Arginine
Hygroscopicity [1]: Hygroscopic

More lines, now with the values ahead:

Hygroscopicity [1]: Hygroscopic
Compound: [Mg] [Magnesium]

Change of optical purity during the storage [2]: remained unchanged
Optical purity (%) After standing at 60° C. and 75% R.H. for 4 weeks in closed condition [2]: 99.9%
Optical purity (%) After standing at 60° C. and 75% R.H. for 4 weeks in open condition [2]: 99.9%
Optical purity (%) Before the test [2]: 99.9%
Solubility compared with bepotastine benzenesulfonic acid salt ([3]; pH 1.2): similar
Saturation solubility (mg/ml) pH 1.2 buffer solution [3]: 43.2 mg/ml
Solubility relative to bepotastine benzenesulfonic acid salt ([3]; pH 6.8): at least 2 times
Saturation solubility (mg/ml) pH 6.8 buffer solution [3]: 61.6 mg/ml
Hygroscopicity (conclusion of moisture absorption test) (Moisture absorption test): essentially non-hygroscopic
Water contents (%) Day 1 (Moisture absorption test; 25° C., 75% R.H.): 4.3%
Water contents (%) Day 3 (Moisture absorption test; 25° C., 75% R.H.): 4.3%
Water contents (%) Day 7 (Moisture absorption test; 25° C., 75% R.H.): 4.4%
Water contents (%) Day 15 (Moisture absorption test; 25° C., 75% R.H.): 4.4%
Water contents (%) initial (Moisture absorption test; 25° C., 75% R.H.): 4.3%
Water contents (%) Day 1 (Moisture absorption test; 40° C., 75% R.H.): 4.4%
Water contents (%) Day 3 (Moisture absorption test; 40° C., 75% R.H.): 4.6%
Water contents (%) Day 7 (Moisture absorption test; 40° C., 75% R.H.): 4.5%
Water contents (%) Day 15 (Moisture absorption test; 40° C., 75% R.H.): 4.6%
Water contents (%) initial (Moisture absorption test; 40° C., 75% R.H.): 4.3%
Increment of water content (Moisture absorption test; 40° C., 90% R.H., 15 days): less than 0.7%
Water contents (%) Day 1 (Moisture absorption test; 40° C., 90% R.H.): 4.7%
Water contents (%) Day 3 (Moisture absorption test; 40° C., 90% R.H.): 4.9%
Water contents (%) Day 7 (Moisture absorption test; 40° C., 90% R.H.): 4.9%
Water contents (%) Day 15 (Moisture absorption test; 40° C., 90% R.H.): 5.0%
Water contents (%) initial (Moisture absorption test; 40° C., 90% R.H.): 4.3%
Compound: O.O.O=C([O-])CCCN1CCC(O[C@@H](c2ccc(Cl)cc2)c2ccccn2)CC1.O=C([O-])CCCN1CCC(O[C@@H](c2ccc(Cl)cc2)c2ccccn2)CC1.[Ca+2] [Calcium salt hydrate, Bepotastine Calcium Salt Dihydrate]

Hygroscopicity [1]: Hygroscopic
Hygroscopicity ([1]; listed as sodium salt of bepotastine): highly hygroscopic
Compound: O=C(O)CCCN1CCC(O[C@@H](c2ccc(Cl)cc2)c2ccccn2)CC1 [Sodium]

Hygroscopicity ([1]; listed as potassium salt of bepotastine): highly hygroscopic
Compound: O=C(O)CCCN1CCC(O[C@@H](c2ccc(Cl)cc2)c2ccccn2)CC1 [Potassium]

Hygroscopicity [1]: Hygroscopic
Compound: Zinc
